Data published in patent publication US10995150B2, “Methods for inhibiting atherosclerosis by administering an anti-PCSK9 antibody” (REGENERON PHARMACEUTICALS, INC., priority 2013, dated 2021).
One block for each compound: values may come before it.

Columns and labels:
APOE*3Leiden.CETP mice [1] = assay: Plasma total cholesterol, triglycerides and lipoprotein profiles; type: in vivo, mouse; conditions: for TC reductions in lipoprotein profile (FPLC): lipoprotein separation by FPLC, FIG. 1C/1D; for average plasma TC, change compared to control: alone or + atorvastatin 3.6 mg/kg/d in diet
From the text: Ninety female APOE*3Leiden.CETP transgenic mice (9 to 13 weeks of age), expressing human CETP under control of its natural flanking regions, were used. During the study, mice were housed under standard conditions with a 12-hour light-dark cycle and had free access to food and water. Animal experiments were approved by the Institutional Animal Care and Use Committee of The Netherlands Organization for Applied Research.
Plasma was isolated from blood collected in ethylenediaminetetraacetic acid (EDTA)-coated cups via tail vein bleeding after a 4-hour fast every 2 to 4 weeks. Plasma TC and TG were determined using enzymatic kits according to the manufacturer's protocols (cat. no. 1458216 and cat. no. 1488872, respectively; Roche/Hitachi) and average plasma TC and TG levels were calculated. Lipoprotein profiles for TC were measured after lipoprotein separation by fast protein liquid chromatography (FPLC) after 4, 12, and 18 weeks of treatment. MAb316P levels were measured by a human Fc enzyme-linked immunosorbent assay.

APOE*3Leiden.CETP mice [2] = assay: Histological assessment of atherosclerosis in the aortic root; type: in vivo, mouse; conditions: 18 weeks; for lesion severity (severe type IV-V lesions) compared with the control / lesion-free sections / undiseased segments compared with the control: dose of mAb316P not specified
From the text: (§1) Hearts were isolated, fixed in formalin, and embedded in paraffin. Cross-sections (5 μm each) of the entire aortic root area were stained with hematoxylin-phloxin-saffron. For each mouse, four sections at intervals of 50 μm were used for quantitative and qualitative assessment of the atherosclerotic lesions. To determine atherosclerotic lesion size and severity, the lesions were classified into five categories according to the American Heart Association classification: I) early fatty streak, II) regular fatty streak, III) mild plaque, IV) moderate plaque, and V) severe plaque. Total lesion area and number of lesions per cross-section, as well as the percentage undiseased segments, were calculated. To assess lesion severity as a percentage of all lesions, type I-Ill lesions were classified as mild lesions, and type IV-V lesions were classified as severe lesions. To determine the total plaque load in the thoracic aorta, perfusion-fixed aortas (from the aortic origin to the diaphragm) were cleaned of extravascular fat, opened longitudinally, pinned en face, and stained for lipids with oil-red O as described previously by Verschuren et al. (Arterioscler Thromb Vasc Biol. 2005; 25:161-167). Data were normalized for analyzed surface area and expressed as percentage of the stained area. Photos/images were taken with the Olympus BX51 microscope and lesion areas were measured using Cell D imaging software (Olympus Soft Imaging Solutions).

APOE*3Leiden.CETP mice [3] = assay: Flow cytometric analysis of white blood cells (PBMC); type: in vivo, mouse
From the text: After 8 weeks of treatment, peripheral blood mononuclear cells (PBMCs) were isolated from fresh blood samples and were sorted into GR-1+ (neutrophils/granulocytes), GR-1− (lymphocytes/monocytes), CD3+ (T-cells), CD19+ (B-cells) and CD11b+/Ly6C^low and CD11b+/Ly6C^hi (monocytes) cells using flow cytometric (FACS) analysis. The following conjugated monoclonal antibodies were used from Becton Dickinson: GR-1 FITC, CD3 PerCpCy5-5, CD19 V450, CD11b APC and Ly6C PE-Cy7.

APOE*3Leiden.CETP mice [4] = assay: Liver weight and hepatic lipid analysis; conditions: atorvastatin 3.6 mg/kg/d alone; 18 weeks
From the text: Mice received a semi-synthetic cholesterol-rich diet, containing 15% (w/w) cacao butter and 0.15% cholesterol (Western-type diet [WTD]; Hope Farms, Woerden, The Netherlands) for a run-in period of 3 weeks to increase plasma total cholesterol (TC) levels up to ˜15 mmol/L. Body weight (BW) and food intake were monitored regularly during the study. […] At the end of the treatment period, all animals were sacrificed by CO2 inhalation. Livers and hearts were isolated to assess hepatic LDLR protein levels, lipid content, atherosclerosis development, and plaque composition.
Liver tissue samples were homogenized in phosphate-buffered saline, and the protein content was measured. Lipids were extracted, separated by high-performance thin-layer chromatography on silica gel plates, and analyzed with TINA2.09 software (Raytest Isotopen Messgerate Straubenhardt, Germany), as previously described by Post et al. (Hepatology. 1999; 30:491-500).

hepatic LDLR protein = assay: Hepatic LDLR protein levels (Western blot); type: in vivo, mouse; conditions: alone or + atorvastatin 3.6 mg/kg/d, 18 weeks
Experimental: Liver tissues were homogenized in lysis buffer (50 mM Tris-HCL [pH=7.4], 150 mM NaCl, 0.25% deoxycholic acid, 1% NP-40 [Igepal], 1 mM EDTA, protease inhibitor cocktail [complete, Roche], 1 mM PMSF, 1 mM Na3VO4) and then centrifuged at 6500 rpm at 4° C. for 30 minutes. Protein concentration in cell lysates was determined by bicinchonic acid protein assay (Thermo Scientific) according to manufacturer's instructions. 50 μg of protein lysates was separated by SDS-PAGE and then transferred to polyvinylidene fluoride membranes (Millipore). Blots were subjected to goat anti-mouse LDLR from R&D Systems and rabbit anti-goat horseradish peroxidase (HRP) from AbD Serotec or mouse anti-α-Tubulin from Sigma and horse anti-mouse HRP from Cell Signaling Technologies (according to the manufacturer's instructions); blots were developed with West Femto Super Signal ECL (Thermo Scientific) and subjected to the Chemi-Doc-it imaging system. Intensities of protein bands were quantified using Image J software.

APOE*3Leiden.CETP mice [5] = assay: Total plaque load in the aortic arch (oil-red O); type: in vivo, mouse; conditions: mAb316P 10 mg/kg, alone or + atorvastatin 3.6 mg/kg/d; 18 weeks
From the text: as §1, with “To determine the total plaque load in the thoracic aorta, perfusion-fixed aortas (from the aortic origin to the diaphragm) were cleaned of extravascular fat, opened longitudinally, pinned en face, and stained for lipids with oil-red O as described previously by Verschuren et al. (Arterioscler Thromb Vasc Biol. 2005; 25:161-167).” left out

[6] = 10 mg/kg MAb316P and/or atorvastatin, after 8 weeks of treatment, mean ± SD
[7] = mAb316P 3 mg/kg weekly s.c., 18 weeks
[8] = mAb316P 10 mg/kg weekly s.c., 18 weeks
[9] = mAb316P 3 mg/kg weekly s.c., alone or + atorvastatin 3.6 mg/kg/d
[10] = mAb316P 10 mg/kg weekly s.c., alone or + atorvastatin 3.6 mg/kg/d
[11] = mAb316P 10 mg/kg, alone or + atorvastatin, 8 weeks

liver weight, change compared to the control group (APOE*3Leiden.CETP mice [4]): −15%
Compound: CC(C)c1c(C(=O)Nc2ccccc2)c(-c2ccccc2)c(-c2ccc(F)cc2)n1CC[C@@H](O)C[C@@H](O)CC(=O)O [atorvastatin, reference compound]
TC reductions in lipoprotein profile (FPLC) (APOE*3Leiden.CETP mice [1]): confined to apoB-containing lipoproteins | lesion severity (severe type IV-V lesions) compared with the control (APOE*3Leiden.CETP mice [2]): reduced severity to a lesser extent | lesion-free sections / undiseased segments compared with the control (APOE*3Leiden.CETP mice [2]): no effect | atherosclerotic lesion size (aortic root), change compared to the control (APOE*3Leiden.CETP mice [2]; atorvastatin 3.6 mg/kg/d alone): −35% | effect on the number of lesions (APOE*3Leiden.CETP mice [2]; atorvastatin 3.6 mg/kg/d alone): no effect | B-cells (APOE*3Leiden.CETP mice [3]; [6]): 69.5 ± 17.4 % of PBMC population | CD11b+ Ly6C^hi (APOE*3Leiden.CETP mice [3]; [6]): 51.2 ± 6.4 % of monocytes | CD11b+ Ly6C^low (APOE*3Leiden.CETP mice [3]; [6]): 47.8 ± 6.3 % of monocytes | Lymphocytes/Monocytes (APOE*3Leiden.CETP mice [3]; [6]): 94.9 ± 1.6 % of PBMC population | Monocytes (APOE*3Leiden.CETP mice [3]; [6]): 5.3 ± 2.4 % of PBMC population | Neutrophils/Granulocytes (APOE*3Leiden.CETP mice [3]; [6]): 5.1 ± 1.6 % of PBMC population | T-cells (APOE*3Leiden.CETP mice [3]; [6]): 17.0 ± 4.8 % of PBMC population

Compound: mAb316P: human anti-PCSK9 antibody; HCVR SEQ ID NO:1, LCVR SEQ ID NO:6
TC, 3 mg mAb316P versus 10 mg mAb316P (dose dependence) (APOE*3Leiden.CETP mice [1]; alone, or both with atorvastatin 3.6 mg/kg/d, 18 weeks): −14% | TC reductions in lipoprotein profile (FPLC) (APOE*3Leiden.CETP mice [1]): confined to apoB-containing lipoproteins | average plasma TC, change compared to control (APOE*3Leiden.CETP mice [1]; [7]): −37% | average plasma TG, change compared to control (APOE*3Leiden.CETP mice [1]; [7]): −33% | average plasma TC, change compared to control (APOE*3Leiden.CETP mice [1]; [8]): −46% | average plasma TG, change compared to control (APOE*3Leiden.CETP mice [1]; [8]): −39% | Hepatic LDLR protein levels, change vs control (hepatic LDLR protein; mAb316P 3 mg/kg weekly s.c.): +80% | Hepatic LDLR protein levels, change vs control (hepatic LDLR protein; mAb316P 10 mg/kg weekly s.c.): +133% | lesion severity (severe type IV-V lesions) compared with the control (APOE*3Leiden.CETP mice [2]): fewer severe (type IV-V) lesions | lesion-free sections / undiseased segments compared with the control (APOE*3Leiden.CETP mice [2]): more lesion-free sections | atherosclerotic lesion size (aortic root), change compared to the control (APOE*3Leiden.CETP mice [2]; [9]): −71% | number of lesions per cross-section, change compared to the control (APOE*3Leiden.CETP mice [2]; [9]): −17% | atherosclerotic lesion size (aortic root), change compared to the control (APOE*3Leiden.CETP mice [2]; [10]): −88% | number of lesions per cross-section, change compared to the control (APOE*3Leiden.CETP mice [2]; [10]): −30% | total plaque area in the aortic arch, change vs control (APOE*3Leiden.CETP mice [5]): −67% | B-cells (APOE*3Leiden.CETP mice [3]; [6]): 66.3 ± 15.0 % of PBMC population | CD11b+ Ly6C^hi (APOE*3Leiden.CETP mice [3]; [6]): 57.5 ± 8.4 % of monocytes | CD11b+ Ly6C^low (APOE*3Leiden.CETP mice [3]; [6]): 40.0 ± 8.0 % of monocytes | Lymphocytes/Monocytes (APOE*3Leiden.CETP mice [3]; [6]): 92.9 ± 2.0 % of PBMC population | Monocytes (APOE*3Leiden.CETP mice [3]; [6]): 8.9 ± 2.5 % of PBMC population | Neutrophils/Granulocytes (APOE*3Leiden.CETP mice [3]; [6]): 7.1 ± 2.0 % of PBMC population | anti-inflammatory Ly6C^low monocytes, change vs control (APOE*3Leiden.CETP mice [3]; [11]): +12% | granulocytes/neutrophils (as % of PBMC population), change vs control (APOE*3Leiden.CETP mice [3]; [11]): −20% | monocytes (as % of PBMC population), change vs control (APOE*3Leiden.CETP mice [3]; [11]): −28% | pro-inflammatory Ly6C^hi monocytes, change vs control (APOE*3Leiden.CETP mice [3]; [11]): −8%
